In patent publication US12329773B2, “Oxygen reactive polymers for treatment of traumatic brain injury” (University of Washington, priority 2015, dated 2025):

Test: MR imaging of uptake, retention and clearance in CCI mouse model of TBI
Type: in vivo, mice
Experimental: 8-10 Week old C57/B6 mice were induced with 4% isoflurane gas via inhalation and maintained at 1.5-2%, then placed upon a warm heating pad set to 100° F. to maintain body temperature. Prior to surgery, hair on the top of the skull was trimmed and epilated via shears and Nair (Church and Dwight Co., Inc., Princeton, NJ). Lidocaine (0.05 mL at a 5 mg/mL) and bupivacaine (0.05 mL at 0.3 mg/mL) were injected subcutaneously under the scalp. After 5 min to allow anesthetic to absorb, a midline incision was made in the skin from lambda to bregma. Fascia and skin were retracted and a small hole drilled using a high speed surgical drill over the left frontoparietal cortex (3 mm anterior and 2 mm left from lambda), and a 3 mm circular cranial window created using rongeurs. A pneumatically-operated controlled cortical impactor (CCI) with a 3 mm convex tip was used to impact the brain normal to the dura surface at a depth of 1 mm at 6 m/s and remained in the brain for 150 ms. Incisions were closed using skin glue and mice given an intraperitoneal injection of buprenorphine (0.1 mg/kg). Mice were monitored under a heat lamp until awake.
Three consecutive T1w images were acquired with RARE (rapid acquisition with refocused echoes) pulse sequence: TR/TE=667.5/4.5 ms, matrix=256×128, field of view (FOV)=25.6×25.6 mm, number of averages (NA)=1, 15 slices and 1 mm slice thickness. […] A series of T1w images were acquired using a fast low angle shot (FLASH) pulse sequence. There were three—four consecutive T1w sequences acquired both pre and post injection—one set of three pre injection acquisitions and then three sets of four post injection acquisitions with an additional set post the following day (4 post imaging total). These images utilized a 3 dimensional (D) FLASH sequence: TR/TE=20/3.87 ms, flip angle=20°, matrix=160×160×30, FOV=25.6×25.6 mm, NA=2, 30 slices and 3D slab of 15 mm. For the first group of mice, T2w images (TR/TE=5500/50 ms) were selected from RARE pulse sequence with (TR=214.3, 500, 1000, 1500, 3000 and 5500 ms and TE=10, 30, 50, 70 and 90 ms, matrix=256×128, FOV=25.6×25.6 mm, NA=1, 2 slices and 1 mm slice thickness. For the second group of mice, T2w images (TR/TE=4000/37.7 ms) were selected from multi-slice and multi-echo imaging conducted with TR/TE=4000/6.3−75.4 ms (12 echoes with 6.3 ms spacing), matrix=256×128, NA=1, 15 slices and 1 mm slice thickness.

| blood (circulation) half-life (mouse, in vivo) | half-life in the ventricles (mouse, in vivo) [h] | Compound | accumulation / contrast enhancement in damaged brain (T1 contrast) (mouse, in vivo) | accumulation in damaged brain (T1 contrast) (mouse, in vivo) | half-life in damaged brain (resident half-life) (mouse, in vivo) | retention in damaged brain (mouse, in vivo) | retention within damaged brain (mouse, in vivo) | accumulation / contrast enhancement in damaged brain (T1 contrast) (injected 3 hrs post-CCI) | blood half-life (injected post-CCI, intravascular MR signal) [min] |
| --- | --- | --- | --- | --- | --- | --- | --- | --- | --- |
| about 1.1 hrs | ~40 | poly(MEMcoO950coMNHS) [ORP] | showed accumulation in damaged brain after 18 hrs | accumulates in the damaged region of brain | greater than 14 hrs | at least 18 hrs | at least 24 hrs | – | – |
| – | – | O=C([O-])CN(CCN(CC(=O)[O-])CC(=O)O)CCN(CC(=O)[O-])CC(=O)O.[Gd+3] [Gd-DTPA, reference compound] | – | – | – | – | – | displayed contrast enhancement in damaged brain | 36 |
